In patent US20200297617A1, “COMPOSITION FOR SKIN EXTERNAL USE FOR REDUCING WRINKLE AND COSMETIC PRODUCT” (Guangdong Bawei Biotechnology Co., Ltd., priority 2019, published 2020):

System: MMP-1
Test: Test 2: Analysis of inhibition of MMP-1 expression (MMP-1 ELISA, UVB-irradiated HS68 cells)
Type: cell-based, human
Conditions: UVB 30 mJ/cm2, compositions 1% mass concentration (RA 5 μM), 48 h, unirradiated control = 100, UV control = 194
Procedure: Test 2: Analysis of Inhibition of MMP-1 Expression
Human fibrocytes (HS68 cells, purchased from ATCC (Rockville, Md., USA)) were placed in a well plate at a density of 7.5×10^4 cells/well, and incubated in DMEM containing 10% FBS for 24 h, and then washed with PBS (phosphate buffer), followed by the addition of 0.5 ml of PBS therein, the resultant incubated cells were irradiated with ultraviolet rays (UVB30 mJ/cm2) to induce the expression of MMP-1. After the replacement with serum-free DMEM, the resultant product was treated with the compositions (having a mass concentration of 1%) of the examples and the contrast examples. The amount of supernatant obtained after 48 h incubation was determined using an MMP-1 ELISA kit. The human dermal fibroblasts HS68 were treated with ultraviolet rays to increase the expression of MMP-1, and then the resultant HS68 cells were treated with each sample to study whether the expression of MMP-1 was decreased. In the above, retinoic acid (RA, 5 μM, which is known to inhibit the expression of MMP-1) was used as a positive control group.

CC1=C(/C=C/C(C)=C/C=C/C(C)=C/C(=O)O)C(C)(C)CCC1 [RA, retinoic acid]
Effect on inhibition of MMP-1 expression: proportions relative to the control group (%): 118%
